# Entries after “also recorded” stand apart in the source; their conditions may differ. Read-outs that look alike come from different tables or passages of the source. Where no end group is shown, it is not given here.
# How the values were obtained:
# [1] = system: SCRIB PDZ domains; assay: Competition ELISA, binding to the SCRIB PDZ domains; design: species or system Human
# Protocol: (§1) Peptides were synthesized with acetylated C termini. The binding affinities of peptides for PDZ domains were determined as 50% inhibition concentration (IC50) values using competition ELISAs, as described. The IC50 value was defined as the concentration of peptide that blocked 50% of PDZ domain binding to immobilized peptide.
# [2] = target: T1, SCRIB-1 (Homo sapiens, UniProt Q14160); assay: Competition ELISA, peptide affinity for PDZ domain; format: binding
# T1 construct: synthetic peptide that targets SCRIB PDZ domains 1, 2, and 3; GST; made in house; host or cells: E. coli
# T1 sequence (Q14160 728-815 limits assumed): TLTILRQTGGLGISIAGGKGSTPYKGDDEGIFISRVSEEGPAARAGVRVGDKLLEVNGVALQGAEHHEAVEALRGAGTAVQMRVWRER
# Protocol: as §1
# [3] = target: T2, SCRIB-2 (Homo sapiens, UniProt Q14160); assay: Competition ELISA, peptide affinity for PDZ domain; format: binding
# T2 construct: synthetic peptide that targets SCRIB PDZ domains 1, 2, and 3; GST; made in house; host or cells: E. coli
# T2 sequence (Q14160 862-950 limits assumed): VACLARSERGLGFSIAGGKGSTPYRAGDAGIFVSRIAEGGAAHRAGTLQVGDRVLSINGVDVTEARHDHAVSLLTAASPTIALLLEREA
# Protocol: as §1
# [4] = target: T3, SCRIB-3 (Homo sapiens, UniProt Q14160); assay: Competition ELISA, peptide affinity for PDZ domain; format: binding
# T3 construct: synthetic peptide that targets SCRIB PDZ domains 1, 2, and 3; GST; made in house; host or cells: E. coli
# T3 sequence (Q14160 1004-1093 limits assumed): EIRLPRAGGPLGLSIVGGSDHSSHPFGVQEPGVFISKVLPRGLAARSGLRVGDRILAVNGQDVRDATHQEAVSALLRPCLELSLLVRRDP
# Protocol: as §1
# [5] = target: T4, first PDZ domain of ZO-1 (TJP1–1) (Homo sapiens, UniProt Q07157); assay: biochemical; format: binding
# T4 construct: the first PDZ domain of ZO-1 (TJP1–1); GST; made in house; host or cells: E. coli
# T4 sequence (Q07157 23-110 limits assumed): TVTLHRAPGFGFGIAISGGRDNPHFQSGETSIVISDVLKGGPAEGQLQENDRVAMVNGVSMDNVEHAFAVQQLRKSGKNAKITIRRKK
# [6] = system: Naive Crtam−/− CD4 T cells; assay: T cell polarization, Talin staining; format: cell-based; details: Crtam−/− CD4 T cells electroporated with Crtam plasmid; peptide 1.0 μM; restimulated after 6 h, fixed 14 h later
# Protocol: (§2) Naïve Crtam^−/− CD4 T cells were purified and activated with plate-bound anti-CD3 and anti-CD28, as described. On day 4, T cells were electroporated with 4 μg of pIRES_GFP or pIRES_GFP/Crtam plasmid DNA by Amaxa Nucleofector (program X-01). Synthetic peptides (1.0 μM) were added into the cultures, and after 6 h, transfected cells were restimulated at 1 × 10^6 cells/ml with plate-bound antibodies and were fixed 14 h later for Talin staining. After 42 h, [^3H]-thymidine (1 μCi/well) was added, and the plates were harvested 8 h later.
# [7] = system: Naive Crtam−/− CD4 T cells; assay: T cell proliferation, [3H]-thymidine incorporation; format: cell-based; details: Crtam−/− CD4 T cells electroporated with Crtam plasmid; peptide 1.0 μM; [3H]-thymidine added after 42 h, harvested 8 h later; representative of three independent experiments
# Protocol: as §2
substance,measurement,setting,value
Ac-HMARRVESEV [compound 9],Interaction with the SCRIB PDZ domains (in words),[1],interact with the SCRIB PDZ domains
Ac-KMARAARSKV-OH [peptide 11],IC50,[2],> 500 µM
same,IC50,[3],> 500 µM
same,IC50,[4],> 500 µM
same,IC50,[5],> 500 µM
same,Interaction with the SCRIB PDZ domains (in words),[1],does not
Ac-KMERTIESEV [compound 10],Interaction with the SCRIB PDZ domains (in words),[1],interact with the SCRIB PDZ domains
Ac-PPRRHRETYV (N-terminus assumed) [peptide 12],Interaction with the ZO-1 PDZ domain (TJP1–1) (in words),[5],bound to both
same,Interaction with the SCRIB PDZ domains (in words),[1],bound to both
Ac-RQIKIWFQNRRMKWKKRSWFEAWA (N-terminus assumed) [peptide 15],Effect on late phase of T cell polarization (Talin staining),[6],has no effect
same,Effect on T cell proliferation ([3H]-thymidine incorporation),[7],has no effect
same,Interaction with the SCRIB PDZ domains (in words),"[1]; in vitro, synthesized peptides",nonbinding
Ac-RQIKIWFQNRRMKWKKRSWFETWV (N-terminus assumed) [peptide 14],Effect on late phase of T cell polarization (Talin staining),[6],causes loss of late-phase T cell polarization
same,Effect on T cell proliferation ([3H]-thymidine incorporation),[7],triggers T cell proliferation; also recorded: reverses the hypoproliferative effects of Crtam
same,Interaction with the SCRIB PDZ domains (in words),"[1]; in vitro, synthesized peptides",binds to the SCRIB PDZ domains with high affinity
Ac-RRRKRKRTYL (N-terminus assumed) [peptide 13],Interaction with the ZO-1 PDZ domain (TJP1–1) (in words),[5],interacted only with this domain
same,Interaction with the SCRIB PDZ domains (in words),[1],interacted only with this domain
